Laboratory results reported in patent US20220030868A1, “FUNGICIDAL HALOMETHYL KETONES AND HYDRATES” (FMC CORPORATION, priority 2018, published 2022).

Legend:
[1] = tested on: Puccinia recondita f. sp. tritici; test: Test B: test suspension sprayed on wheat seedlings one day before inoculation with Puccinia recondita f. sp. tritici spores (wheat leaf rust), disease rating; format: in vivo; details: 100 = 100% disease control, 0 = no control
In short: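 Wheat seedlings were sprayed to run-off with compound suspended in 50/50 acetone/water containing 250 ppm PEG400, then inoculated with P. recondita f. sp. tritici spores the next day. Plants were held 24 h in saturated air at 20 °C, then 6 days in a growth chamber at 20 °C. Disease control was rated 0–100% relative to controls, with some entries run at 50 or 10 ppm.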

Phakopsora pachyrhizi = test: Test A: test suspension sprayed on soybean seedlings one day before inoculation with Phakopsora pachyrhizi spores (Asian soybean rust), visual disease rating; format: in vivo; details: 100 = 100% disease control, 0 = no control
In short: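 Compound dissolved in acetone (3% of final volume), then suspended at the stated ppm in 50/50 acetone/water with 250 ppm PEG400 surfactant; sprayed to run-off on soybean seedlings, inoculated with P. pachyrhizi spores next day. Held saturated at 22° C for 24 h, then 8 days at 22° C; visual rating as % disease control versus controls.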

[2] = Phakopsora pachyrhizi, 10 ppm test suspension
[3] = Phakopsora pachyrhizi, 50 ppm test suspension

Row | SMILES | Test B rating (disease control) ([1]; 10 ppm test suspension) | Test A rating (disease control) (Phakopsora pachyrhizi; 10 ppm test suspension) | also measured
1 | O=C(OCc1ccc(Cl)c(Cl)c1)c1cnn(Cc2ccc(OCC(O)(O)C(F)(F)F)cc2)c1 [Compound 49] | 86% | 0% | 
2 | CCOC(=O)c1cnn(Cc2ccc(CCC(O)(O)C(F)(F)F)cc2)c1 [Compound 66] |  |  | Test B rating (disease control) ([1]; 50 ppm test suspension): 89%; Test A rating (disease control) (Phakopsora pachyrhizi; 50 ppm test suspension): 92%
3 | CC(C)C(=O)NCc1ccc(OCC2(C(F)(F)F)OCCO2)cc1 [compound 175] | 0% | 0% | 
4 | CC=CCOC(=O)c1cnn(Cc2ccc(OCC3(C(F)(F)F)OCCO3)cc2)c1 [compound 285] | 0% | 100% | 
5 | CCO/C(=C\Oc1ccc(Cn2ncnc2C(=O)OC)cc1)C(F)(F)F [Compound 122] | 0% | 0% | 
6 | CCCCCCOC(=O)c1cnn(Cc2ccc(OCC3(C(F)(F)F)OCCO3)cc2)c1 [compound 16] | 0% | 99% | 
7 | CCOC(=O)c1cnn(Cc2ccc(OCC3(C(F)(F)F)OCCO3)nc2)c1 [compound 168] |  |  | pest or weed control at 10 ppm ([1]; 10 ppm test suspension): 0%; pest or weed control at 10 ppm (Phakopsora pachyrhizi; [2]): 0%
8 | CCO/C(=C\Oc1ccc(Cn2cncc2C(=O)OC)cc1)C(F)(F)F [compound 85] | 0% | 89% | 
9 | N#CCc1ccc(OCC2(C(F)(F)F)OCCO2)cc1 [compound 239] | 0% | 0% | 
10 | CCO/C(=C\Oc1ccc(-c2noc(C(F)(F)F)n2)cc1)C(F)(F)F [compound 143] | 0% | 0% | 
11 | CCOC(=O)c1cnn(Cc2ccc(OCC(O)(O)C(F)(F)F)cc2)c1 [Compound 1, ethyl 1-[[4-(3,3,3-trifluoro-2,2-dihydroxypropoxy)phenyl]methyl]-1H-pyrazole-4-carboxylate] |  |  | pest or weed control at 250 ppm ([1]; 250 ppm test suspension): 91%; pest or weed control at 250 ppm (Phakopsora pachyrhizi; Phakopsora pachyrhizi, 250 ppm test suspension): 100%
12 | C=CCNC(=O)c1ccc(O/C=C(\OCC)C(F)(F)F)cc1 [compound 103] | 0% | 0% | 
13 | CCOC(=O)NCc1ccc(OCC2(C(F)(F)F)OCCO2)cc1 [compound 78] | 0% | 94% | 
14 | CCOC(=O)c1cnn(CCCc2ccc(O/C=C(\OCC)C(F)(F)F)cc2)c1 [compound 294] | 0% | 100% | 
15 | CCCNC(=O)c1ccc(O/C=C(\OCC)C(F)(F)F)cc1 [compound 104] | 80% | 0% | 
16 | O=C(OCc1ccc(Cl)c(Cl)c1)c1cnn(Cc2ccc(OCC3(C(F)(F)F)OCCO3)cc2)c1 [compound 17] | 0% | 100% | 
17 | CCCCOC(=O)c1ccn(Cc2ccc(O/C=C(\OCC)C(F)(F)F)cc2)n1 [compound 356] | 0% | 100% | 
18 | CCO/C(=C\Oc1ccc(Cc2ccnc(OCC[Si](C)(C)C)n2)cc1)C(F)(F)F [compound 313] |  |  | Test B rating (disease control) ([1]; 50 ppm test suspension): 0%; Test A rating (disease control) (Phakopsora pachyrhizi; 50 ppm test suspension): 0%
19 | C#CCOC(=O)c1ccc(O/C=C(\OCC)C(F)(F)F)cc1 [compound 75] | 0% | 0% | 
20 | O=C(OCCCCl)c1cnn(Cc2ccc(OCC3(C(F)(F)F)OCCO3)cc2)c1 [compound 161] | 0% | 100% | 
21 | C=C(C)COC(=O)c1cnn(Cc2ccc(OCC(O)(O)C(F)(F)F)cc2)c1 [Compound 40] | 68% | 91% | 
22 | COC(=O)COC(=O)c1cnn(Cc2ccc(OCC3(C(F)(F)F)OCCO3)cc2)c1 [compound 203] | 0% | 50% | 
23 | C#CCOC(=O)c1cnn(Cc2ccc(OCC3(C(F)(F)F)OCCO3)cc2)c1 [compound 15] | 0% | 100% | 
24 | CCO/C(=C\Oc1ccc(Cn2cccn2)cc1)C(F)(F)F [compound 151] | 0% | 0% | 
25 | CCOC(=O)c1cnn(Cc2cccc(OCC3(C(F)(F)F)OCCO3)c2)c1 [compound 146] |  |  | pest or weed control at 50 ppm ([1]; 50 ppm test suspension): 0%; pest or weed control at 50 ppm (Phakopsora pachyrhizi; [3]): 60%
26 | CCOC(=O)c1cnn(Cc2ccc(OCC3(C(F)(F)F)OCC(C)(C)O3)cc2)c1 (stereo not shown) [Compound 12, ethyl 1-[[4-[[4,4-dimethyl-2-(trifluoromethyl)-1,3-dioxolan-2-yl]methoxy]-phenyl]methyl]-1H-pyrazole-4-carboxylate] |  |  | pest or weed control at 10 ppm ([1]; 10 ppm test suspension): 0%; pest or weed control at 10 ppm (Phakopsora pachyrhizi; [2]): 13%
27 | CCOC(=O)C1=NOC(c2ccc(O/C=C(\OCC)C(F)(F)F)cc2)C1 (stereo not shown) [compound 278] |  |  | Test B rating (disease control) ([1]; 50 ppm test suspension): 0%; Test A rating (disease control) (Phakopsora pachyrhizi; 50 ppm test suspension): 94%

Row | SMILES | Test B rating (disease control) ([1]; 10 ppm test suspension) | Test A rating (disease control) (Phakopsora pachyrhizi; 10 ppm test suspension) | also measured
28 | O=[N+]([O-])c1ccc(OCC(O)(O)C(F)(F)F)cc1 [Compound 280] |  |  | Test B rating (disease control) ([1]; 50 ppm test suspension): 100%; Test A rating (disease control) (Phakopsora pachyrhizi; 50 ppm test suspension): 100%
29 | CCO/C(=C\Oc1ccc(Cn2cc(C#N)cn2)cc1)C(F)(F)F [compound 205] | 0% | 0% | 
30 | CCO/C(=C\Oc1ccc(CN2CCCC2=O)cc1)C(F)(F)F [compound 224] | 0% | 0% | 
31 | O=C(NCC1CC1)c1cnc(Cc2ccc(OCC(O)(O)C(F)(F)F)cc2)s1 [Compound 256] | 0% | 73% | 
32 | CCOC(=O)c1cnn(Cc2ccc(OC(F)(F)C(O)(O)C(F)(F)F)cc2)c1 [Compound 227] | 55% | 99% | 
33 | CCO/C(=C\Oc1ccc(Cc2ncc(C(=O)NCC3CC3)s2)cc1)C(F)(F)F [compound 254] | 0% | 73% | 
34 | CCOC(=O)C=CCOc1ccc(O/C=C(\OCC)C(F)(F)F)cc1 [compound 96] | 0% | 13% | 
35 | CCO/C(=C\Oc1ccc(Cn2cc(C(=O)NCC(F)(F)F)cn2)cc1)C(F)(F)F [compound 106] | 0% | 0% | 
36 | CCOC(=O)c1cn(Cc2ccc(O/C=C(\OCC)C(F)(F)F)cc2)nn1 [compound 121] | 0% | 100% | 
37 | CCO/C(=C\Oc1ccc(C#N)cc1)C(F)(F)F [compound 144] | 0% | 78% | 
38 | CCO/C(=C\Oc1ccc(C=O)cc1)C(F)(F)F [compound 148] | 0% | 0% | 
39 | CCOC(=O)c1cnn(CCCc2ccc(OCC(O)(O)C(F)(F)F)cc2)c1 [Compound 286] | 55% | 87% | 
40 | CCOC(=O)c1cnn(COc2ccc(O/C=C(\OCC)C(F)(F)F)cc2)c1 [Compound 364, ethyl 1-[[4-[[(1Z)-2-ethoxy-3,3,3-trifluoro-1-propen-1-yl]oxy]phenoxy]methyl]-1H-pyrazole-4-carboxylate] |  |  | pest or weed control at 50 ppm ([1]; 50 ppm test suspension): 0%; pest or weed control at 50 ppm (Phakopsora pachyrhizi; [3]): 100%
41 | CCOC(=COc1ccc(CC2CC(C(=O)N(C)C)=NO2)cc1)C(F)(F)F (mixture of isomers) [compound 288] |  |  | Test B rating (disease control) ([1]; 50 ppm test suspension): 0%; Test A rating (disease control) (Phakopsora pachyrhizi; 50 ppm test suspension): 96%
42 | CCO/C(=C\Oc1ccc(Cn2cc(C(=O)OCC(=O)c3ccccc3)cn2)cc1)C(F)(F)F [compound 244] | 0% | 100% | 
43 | C#CCOC(=O)c1ccn(Cc2ccc(O/C=C(\OCC)C(F)(F)F)cc2)n1 [compound 325] | 0% | 100% | 
44 | O=C(c1csc(Cc2ccc(OCC(O)(O)C(F)(F)F)cc2)n1)N1CCC(F)(F)C1 [Compound 135] | 61% | 86% | 
45 | O=[N+]([O-])c1ccc(OCC2(C(F)(F)F)OCCO2)cc1 [compound 166] | 95% | 100% | 
46 | CCOC(=O)c1cnn(Cc2ccc(O/C=C(\OCC(F)(F)F)C(F)(F)F)cc2)c1 [compound 298] | 0% | 0% | 
47 | CCCC(=O)N(Cc1ccc(OCC2(C(F)(F)F)OCCO2)cc1)OC [compound 237] | 0% | 97% | 
48 | CCOC(=O)C1CCCN(Cc2ccc(O/C=C(\OCC)C(F)(F)F)cc2)C1 (stereo not shown) [compound 269] | 0% | 100% | 
49 | CCO/C(=C\Oc1cccc(Cn2cc(C(=O)OCC(C)C)cn2)c1)C(F)(F)F [compound 334] | 0% | 100% | 
50 | CCO/C(=C\Oc1ccc(Cn2cc(C(F)(F)F)cn2)cc1)C(F)(F)F [compound 182] | 0% | 0% | 
51 | CCO/C(=C\Oc1ccc(Cn2nccc2C(=O)OC)cc1)C(F)(F)F [compound 250] | 0% | 0% | 
52 | O=C(CC(F)(F)F)NCc1ccc(OCC2(C(F)(F)F)OCCO2)cc1 [compound 212] | 0% | 44% | 
53 | CCO/C(=C\Oc1ccc(Cn2ccc(C(=O)OCCOC)n2)cc1)C(F)(F)F [compound 360] | 0% | 100% | 
